# Laboratory results reported in patent US7273848B2, “Apolipoprotein A-I agonists and their use to treat dyslipidemic disorders” (priority 1997, dated 2007).
# Non-standard residues stand in square brackets, D forms with d. Residues, ends and D or L forms follow the SMILES beside them. No end group written: not given here. Aib = CC(C)(N)C(=O)O
# Target: T1, LCAT (purified from human plasma) (Homo sapiens, UniProt P04180)
# T1 construct: from tissue; host or cells: human plasma
# T1 sequence (P04180 25-440): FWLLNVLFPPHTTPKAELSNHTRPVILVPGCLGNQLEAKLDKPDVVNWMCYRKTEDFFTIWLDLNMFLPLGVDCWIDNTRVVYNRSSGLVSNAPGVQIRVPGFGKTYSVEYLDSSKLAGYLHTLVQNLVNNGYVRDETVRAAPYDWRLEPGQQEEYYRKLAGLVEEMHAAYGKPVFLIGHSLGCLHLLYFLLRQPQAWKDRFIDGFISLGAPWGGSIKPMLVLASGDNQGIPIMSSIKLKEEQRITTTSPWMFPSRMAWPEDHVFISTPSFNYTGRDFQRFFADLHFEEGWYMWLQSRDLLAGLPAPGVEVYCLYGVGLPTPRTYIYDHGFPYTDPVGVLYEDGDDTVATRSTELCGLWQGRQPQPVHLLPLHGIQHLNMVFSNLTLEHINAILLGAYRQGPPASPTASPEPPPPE
# Assay: LCAT activation assay
# Type: biochemical
# Conditions: LCAT activation as compared with native human ApoA-I (= 100%), equivalent masses
# How it was run: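 Substrate SUVs of EPC or POPC with 14C-cholesterol (20:1 molar ratio), in 10 mM Tris, 0.14 M NaCl, 1 mM EDTA, pH 7.4, were preincubated with peptide or equal mass of plasma ApoA-I. Reaction started with human plasma LCAT; activation was measured as cholesterol-to-ester conversion relative to ApoA-I (100%).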
row,Compound,ACTIVITY (%) LCAT
1,VVLDLFRELLNELLEALKQKLK [compound 53],19%
2,PVLDEFRELLNELLEALKQKLK [compound 79],9%
3,PVLELFERLLDELLNALQKKLK [compound 86],7%
4,PVLDEFRELLNEELEALKQKLK [compound 103],1%
5,PVLDLFKELLQELLEALKQKLK [compound 11],72%
6,"CC(C)C[C@H](NC(=O)[C@H](C)NC(=O)[C@H](CCC(=O)O)NC(=O)[C@H](CC(C)C)NC(=O)C(C)(C)NC(=O)[C@H](CCC(=O)O)NC(=O)[C@H](CC(N)=O)NC(=O)[C@H](CC(C)C)NC(=O)[C@H](CCCCN)NC(=O)[C@H](CCC(=O)O)NC(=O)[C@H](CCCNC(=N)N)NC(=O)[C@H](Cc1ccccc1)NC(=O)[C@H](CCC(=O)O)NC(=O)[C@H](CC(=O)O)NC(=O)[C@H](CC(C)C)NC(=O)[C@H](CCC(=O)O)NC(=O)[C@@H]1CCCN1)C(=O)N[C@@H](CCCCN)C(=O)N[C@@H](CCC(N)=O)C(=O)N[C@@H](CCCCN)C(=O)N[C@@H](CC(C)C)C(=O)N[C@@H](CCCCN)C(=O)O [compound 117, PELDEFREKLNEXLEALKQKLK] (H-PELDEFREKLNE[Aib]LEALKQKLK-OH)",0%
7,PVLELFLNLWERLLDALQKKLK [peptide 155],38%
8,"DWFKAFYDKFFEKFKEFF [peptide 247, reference compound]",3%
9,PVLDLFREGWEELKQKLK [compound 224],8%
10,PVLELFENLGERLLDALQKKLK [peptide 151],55%
11,PVLDAFRELAEALAQLKK [compound 225],1%
12,PVLELFENLLERLLDLLQKKLK [compound 165],23%
13,PVLDLFRELLNELLEAGKQKLK [compound 12],70%
14,CC(C)C[C@H](NC(=O)CNC(=O)[C@H](CCC(=O)O)NC(=O)[C@H](CC(N)=O)NC(=O)[C@H](CC(C)C)NC(=O)[C@H](CC(C)C)NC(=O)[C@H](CCC(=O)O)NC(=O)[C@H](CCCNC(=N)N)NC(=O)[C@H](Cc1ccccc1)NC(=O)[C@H](CC(C)C)NC(=O)[C@H](CC(=O)O)NC(=O)[C@H](CC(C)C)NC(=O)[C@@H](NC(=O)[C@H]1CCCN1)C(C)C)C(=O)N[C@@H](CCC(=O)O)C(=O)N[C@@H](C)C(=O)N[C@@H](CC(C)C)C(=O)N[C@@H](CCCCN)C(=O)N[C@@H](CCC(N)=O)C(=O)N[C@@H](CCCCN)C(=O)N[C@@H](CC(C)C)C(=O)N[C@@H](CCCCN)C(=O)O [compound 19] (H-[dP]VLDLFRELLNEGLEALKQKLK-OH),58%
15,Ac-PVLDLLRELLEELKQKLK-NH2 [compound 191],100%
16,Ac-PVLELLKELLEELKQKLK-NH2 [compound 207],50%
17,Ac-PALELFKDLLEELRQKLR-NH2 [compound 202],70%
18,PVLELFENLLEKLLEALQKKLK [compound 182],7%
19,PVLELFDNLLDKLLDALQKKLR [compound 180],8%
20,PVLELFLNLLERLLDALQKKLK [compound 156],35%
21,PLLELFENLLEKLLDALQKKLK [compound 183],6%
